# Data published in patent US20100076072A1, “COMPOSITIONS AND METHODS OF VITAMIN E ADMINISTRATION” (NORTHWESTERN UNIVERSITY, priority 2008, published 2010).
# Columns and labels:
# [1] = tested on: OVA-challenged mice (experimental asthma); test: OVA experimental asthma: lung tissue eosinophils (anti-major basic protein immunolabeling); type: in vivo, mouse; settings: daily s.c. 2 μg tocopherol days 13-20, day 21
# [2] = Tocopherol levels in lung tissue and plasma (HPLC, electrochemical detector); type: in vivo, mouse; settings: for Lung tissue level of the other tocopherol (α vs γ) / Lung tissue level of the administered tocopherol: mice; for Lung tissue level of the administered tocopherol: day 21, daily s.c. 2 μg tocopherol days 13-20
# Method: Body weight and tocopherol levels in these mice were examined. […] Lungs were perfused to remove the blood, homogenized in ethanol and extracted with hexane. Tocopherol concentrations were determined by HPLC with an electrochemical detector.
# [3] = in vivo; cited from earlier work
# [4] = tested on: OVA-challenged mice (experimental asthma); test: OVA experimental asthma: leukocyte infiltration into bronchoalveolar lavage (BAL); type: in vivo, mouse
# Method: Reagents. Ethoxylated castor oil was composed of polyethoxylated castor oil (PEG35), 20% ethanol, and 1% benzyl alcohol. […] The purified tocopherols were diluted in ethoxylated castor oil to indicated concentrations for the in vivo studies. The purified tocopherols were diluted in DMSO (0.2%) for the in vitro studies. OVA administration. BALB/c female mice were maintained on chow diet. The mice were sensitized by intraperitoneal injection (200 μl) of OVA grade V (10 μg)/alum or saline/alum on days 0 and 7 (SEE FIG. 1). On days 13-20, these mice received daily subcutaneous injections (50 μl) of 2 μg natural tocopherol/ethoxylated castor oil or ethoxylated castor oil alone. This daily 2 μg of natural tocopherol is equivalent to the amount of tocopherol that mice consume from diets (4 g diet consumed/day×500 mg α-tocopherol/kg diet) that are commonly used to elevate tissue tocopherols in mice. The mice recieved 2 μg d-α-tocopherol, 2 μg d-γ-tocopherol, 2 μg d-α-tocopherol plus 2 μg d-γ-tocopherol or the vehicle exthoxylated castor oil. […] During the OVA responses in mice, tocopherol radicals are recycled by endogenously synthesized ascorbic acid. On days 16, 18, and 20, the mice were challenged with intranasal OVA fraction VI (150 μg) in saline or saline alone. On day 21, the mice were analyzed for airway responsiveness followed by collection of tissues.
# (§1) Tissue collection. After airway function analysis, mice were weighed, sacrificed and the lungs flushed twice with 0.8 ml PBS. The cells in this bronchoalveolar lavage (BAL) were cytospun onto slides, DiffQuik (Baxter) stained, and differential cell counts were performed. BAL supernatants were snap frozen and stored at −80° C. for cytokine analysis. Lungs were perfused free of blood and one quarter of the lung was tied off, collected, weighed, snap frozen, and stored at −80° C. for tocopherol analysis and PGE2 analysis. One quarter of the lung was collected and placed in RNA later for analysis of mRNA for eotaxin expression. The other half of the lung was injected with 40% freezing compound, collected and stored at −80° C. for tissue sections and histological staining Frozen sections were prepared rather than paraffin sections since the anti-mouse VCAM-1 antibodies only bind to VCAM-1 in frozen sections.
# (§2) Mice were sensitized with intraperitoneal injection of OVA grade V (10 μg)/alum or saline/alum on days 0 and 7 (SEE FIG. 2). On days 13-20, these mice received daily subcutaneous injections (500) of 2 μg natural tocopherol/ethoxylated castor oil (33) or ethoxylated castor oil alone. This daily 2 μg of natural tocopherol is equivalent to the amount of tocopherol that mice consume from diets (4 g diet consumed/day×500 mg a tocopherol/kg diet) that are commonly used to elevate tissue tocopherols in mice. On days 16, 18, and 20 the mice were challenged with intranasal OVA fraction VI (150 μg) in saline or saline alone. On day 21, the mice were analyzed for airway responsiveness and then tissues were collected. Lung responsiveness was determined using methacholine and whole-body plethysmography as previously described. This method of measuring lung function has the advantage of analysis of larger numbers of animals, as compared to the few animals that can be analyzed using invasive measures of lung function. The whole-body plethysmography correlates well with airway function when performed under continuous flow conditions. This measurement under continuous flow is critical as it avoids the complication of airway conditioning that occurs if these measurements are incorrectly made under closed conditions. After airway analysis, mice were sacrificed and tissues collected.
# [5] = tested on: VCAM-1-dependent spleen cell migration across mHEVa endothelial cells; test: In vitro Transwell migration assay; type: cell-based, mouse; settings: for Migration after pretreatment of leukocytes with tocopherol and washing: leukocytes pretreated, washed; for Lymphocyte migration in transwell migration assay: tocopherol left in culture, 24 hours after addition of spleen cells, 80 μM α / 5 μM γ
# Method: In vitro Transwell migration assay. mHEVa cells were grown to confluence on Transwells with 12 μm pores (Costar Cambridge, Mass.). The mHEVc cell monolayers block nonspecific accumulation of red blood cells in the lower transwell chamber and block FITC-albumin diffusion. Spleen cell migration is stimulated by mHEV cell secretion of the chemokine MCP-1. The number of lymphocytes that migrate is linear from 0-24 hrs followed by a plateau. Spleen cells that migrate are greater than 95% lymphocytes and the percentage of cells that migrate is consistent with other in vitro models with endothelial cell lines or cytokine-activated microvascular endothelial cells.
# In this transendothelial migration assay used, the migrated spleen cells are >95% lymphocytes and the B cells and T cells migrate in response to MCP-1. […]
# [6] = target: T1, PKCα (Mus musculus, UniProt P20444); test: VCAM-1 activation of endothelial cell PKCα (PKCα-Thr638 phosphorylation, western blot); type: cell-based; settings: overnight 80 μM α-tocopherol / 2 μM γ-tocopherol; anti-VCAM-1 stimulation 10 minutes
# T1 construct: endogenous in cells; host or cells: endothelial cells (mHEVa named)
# Method: Endothelial cells were pretreated overnight with physiological concentrations of tocopherols (80 μM α-tocopherol and/or 2 μM γ-tocopherol). Endothelial cell VCAM-1 was stimulated with anti-VCAM-1 and a secondary antibody for 10 minutes. Phosphorylation of PKCα-Thr^638 was examined by western blot, developed using an ECL kit, and analyzed by densitometry as in the methods section. These concentrations of α-tocopherol (80 μM) and γ-tocopherol (2 μM) were optimal for their inhibition or enhancement, respectively, of VCAM-1 activation of PKCα (data not shown). Shown are representative blots and data from 5 experiments. *, p<0.05 compared to nonstimulated groups. **, p<0.05 compared to nonstimulated groups and p<0.07 compared to DMSO-treated/anti-VCAM-stimulated group.
# [7] = Body and lung weights on day 21; type: in vivo, mouse; settings: mice, day 21, daily s.c. tocopherol days 13-20
# Method: as §1
# Body weight and tocopherol levels in these mice were examined. […] Consistent with this, the body weight and lung weights of the mice studied during the development of embodiments of the present invention were unaltered by the α-tocopherol or γ-tocopherol treatments (SEE FIG. 3). Lungs were perfused to remove the blood, homogenized in ethanol and extracted with hexane. Tocopherol concentrations were determined by HPLC with an electrochemical detector. The lung tissue and plasma levels of tocopherols were elevated (SEE FIG. 4). […] The level of γ-tocopherol in the lung tissue of γ-tocopherol-treated mice was 10 fold lower than lung tissue α-tocopherol in the α-tocopherol-treated mice. This 10 fold difference in α-tocopherol and γ-tocopherol levels in the lung tissues may be caused preferential transfer of α-tocopherol in the liver by a TTP (20, 24), although the present invention is not limited to any particular mechanism of action and an understanding of the mechanism of action is not necessary to practice the present invention. […] Administration of tocopherols also had no effect on the low levels of δ-tocopherol in the lung (SEE FIG. 4A).
# [8] = tested on: OVA-challenged mice (experimental asthma); test: Airway hyperresponsiveness to methacholine, whole-body plethysmography (Penh); type: in vivo, mouse; settings: for Airway hyperresponsiveness (AHR), enhanced pause (Penh): OVA-challenged BALB/c mice, methacholine dose curve, day 21
# Method: Airway Hyperresponsiveness. Lung responsiveness was determined using methacholine as previously described. On day 21, the mice were analyzed for airway responsiveness by whole body plethysmology. The whole-body plethysmography on conscious, unrestrained mice was performed under continuous airflow conditions (Buxco, Troy, N.Y.). Continuous airflow was used to avoid the influence of conditioning on airway functions, causing aberrant measurements. Enhanced pause (Penh) values were calculated from the flow-derived whole-body plethysmography measurements done with continuous air flow. Penh is a unitless indicator of changes in airway resistance and correlates well with specific airway resistance. Baseline readings were averaged for 5 minutes. Saline or methacholine was nebulized into the airflow for 2-minute periods and the average Penh value calculated for this and the subsequent 8 minutes.
# as §2, with “This measurement under continuous flow is critical as it avoids the complication of airway conditioning that occurs if these measurements are incorrectly made under closed conditions. After airway analysis, mice were sacrificed and tissues collected.” left out
# [9] = tested on: arthritis; test: Arthritis
# [10] = tested on: delayed-type-hypersensitivity responses; settings: in vivo; cited from earlier work
# [11] = tested on: endotoxin-stimulated neutrophil infiltration into the lung; settings: other animal models; cited from earlier work
# [12] = tested on: VCAM-1-dependent lymphocyte migration across mHEVa endothelial cells; test: Transendothelial migration assay with physiological laminar flow (parallel plate flow chamber); type: cell-based, mouse; settings: endothelial cells pretreated overnight, washed; 15 minutes, 2 dynes/cm^2
# Method: In vitro cell association and migration assays with laminar flow. The parallel plate flow chamber was used to examine migration under conditions of laminar flow. Endothelial cells were grown to confluence on slides and then the slide was placed in a parallel plate flow chamber. In vivo, in the absence of inflammation, the rapid fluid dynamics of the blood result in blood cells located midstream of the vascular flow. However, during inflammation, there is a change of fluid dynamics. […]
# Therefore, spleen cells (3×10^6) were added to the flow chamber (35 cm^2) at 2 dynes/cm^2. […] To initiate spleen cell contact with the endothelial cells in vitro, the spleen cells were allowed to settle in the chamber as monitored by microscopy and then 2 dynes/cm^2 was applied for the 15 minute laminar flow assay. […] To quantify migrated spleen cells at 15 minutes, phase contrast microscopy was used to count migrated cells that are phase dark. Under laminar flow, spleen cell migration was detected at 15 minutes. The number of spleen cells that were associated but not migrated (phase light cells) at 15 minutes is low since in 15 minutes, the majority of non-migrating cells roll off the monolayer of endothelial cells as determined by microscopy. […]
# [13] = tested on: lung; settings: in vivo; cited from earlier work
# [14] = tested on: adhesion molecule expression; settings: atherosclerosis models; cited from earlier work
# [15] = OVA-challenged BALB/c mice, daily s.c. 2 μg tocopherol days 13-20, day 21, vs OVA-challenged vehicle
# [16] = OVA-challenged mice, co-treatment with α-tocopherol
Lung tissue level of the other tocopherol (α vs γ) ([2]; day 21),Lung tissue level of the administered tocopherol [2],VCAM-1 activation of PKCα (phosphorylation of PKCα-Thr638) [6],Lung weights [7],Structure (SMILES),Eosinophils in the lung tissue [1],"OVA-stimulated infiltration of eosinophils into the BAL [4, 15]","OVA-stimulated infiltration of lymphocytes into the BAL [4, 15]","OVA-stimulated infiltration of monocytes into the BAL [4, 15]",Migration after pretreatment of leukocytes with tocopherol and washing [5],Lymphocyte migration in transwell migration assay [5],Body weight [7],"Airway hyperresponsiveness (AHR), enhanced pause (Penh) [8]",also measured
did not alter,elevated levels,enhancement,unaltered,"Cc1c(O)cc2c(c1C)O[C@](C)(CCC[C@H](C)CCC[C@H](C)CCCC(C)C)CC2 [γ-tocopherol, d-γ-tocopherol]",elevated,significantly increased,significantly increased,significantly increased,no effect on migration,significantly increases lymphocyte migration,unaltered,elevated,"Lung tissue γ-tocopherol in γ-tocopherol-treated mice relative to lung tissue α-tocopherol in α-tocopherol-treated mice ([2]; day 21): 10 fold lower; Retention in tissues relative to α-tocopherol [3]: 10%; OVA-stimulated infiltration of neutrophils into the BAL [4, 15]: significantly increased; Effect on the benefit of α-tocopherol (BAL leukocyte infiltration) [4, 16]: blocked the benefit of α-tocopherol; Effect on α-tocopherol inhibition of spleen cell migration ([5]; 5 μM γ-tocopherol with α-tocopherol (80 μM)-treated cells): ablated; Lymphocyte migration after pretreatment of endothelial cells ([5]; endothelial cells pretreated, washed five times, transwell assay): elevated lymphocyte migration; Effect on α-tocopherol inhibition of AHR [8, 16]: antagonized the inhibition by α-tocopherol; Effect on arthritis [9]: exacerbatory effect"
did not alter,elevated levels,inhibition,unaltered,"Cc1c(C)c2c(c(C)c1O)CC[C@@](C)(CCC[C@H](C)CCC[C@H](C)CCCC(C)C)O2 [α-tocopherol, d-α-tocopherol, reference compound]",reduced,significantly reduced,significantly reduced,significantly reduced,no effect on migration,inhibited lymphocyte migration,unaltered,completely ablated,Delayed-type-hypersensitivity responses [10]: reduces; Endotoxin-stimulated neutrophil infiltration into the lung [11]: reduces; VCAM-1-dependent lymphocyte migration under laminar flow [12]: inhibited; Increase in α-tocopherol in lungs of α-tocopherol-treated mice ([2]; day 21): five-fold increase; High oxidation by ozone and smoke in the lung [13]: reduces; Adhesion molecule expression [14]: inhibit
